Data: patent EP0440298A1, “Topical preparations for treating human nails” (BROCADES PHARMA B.V., priority 1990, dated 1991)
One block for each compound: values may come before it.

Experiments:
[1] = Weight increase of nail clippings during immersion in a lotion (Example 1); set-up: species or system Human
Description: Solutions (lotions) were prepared, containing (v/v) 40% of distilled water, 40% of methyl ethyl ketone and 20% of isopropyl alcohol.
To these lotions were added salicylic acid, NAC, 1,4-dithiothreitol or mercaptoethylamine, in w/v concentrations as further specified in Table 1.
To distilled water were added glutathione, mercaptoethanol or urea, in w/v concentrations as further specified in Table 1.
(§1) Human nail clippings were immersed in the test and control lotions at ambient temperature and their weight increase expressed as % of their original weight.

[2] = Penetration of the hydrophilic dye eosine in nail clippings during immersion in a lotion (Example 2); format: in vitro ADME, Human; conditions: lotion with 17% NAC and 1% of eosine; immersion 48 hours at room temperature; microscopic freeze sections
Description: (§2) To a similar solution (lotion) as in Example 1, consisting of (v/v) 40% distilled water, 40% of methyl ethyl ketone and 20% of isopropyl alcohol, were added (w/v) 17% of NAC and 1% of eosine.
(§3) Human nail clippings were immersed in this liquid and in the same liquid without NAC (n = 2 x 3) during 48 hours at room temperature, after which the colour penetration was estimated on microscopic freeze sections.

[3] = Penetration of eosine in nail clippings after immersion in a lotion (pretreatment, Example 3); format: in vitro ADME, Human; conditions: pretreatment in NAC lotion lacking eosine, then 24 hours in lotion with 1% eosine lacking NAC
Description: as §2, §3
The same experimental set-up as in Example 2 was used, except that the nail clippings were first immersed in lotions lacking eosine, and subsequently during 24 hours in lotions containing 1% eosine but lacking NAC. n was again 2 x 3.

[4] = Weight increase of nail clippings on dorsal application of a film-forming lotion (Example 4); set-up: species or system Human; conditions: film-forming lotion with 20 parts of NAC painted on dorsal surface twice a day; after 3 days (no further change up to 6 days)
Description: (§4) A film-forming lotion was prepared, consisting by weight of 17.5 parts of distilled water, 17.5 parts of ethanol, 20 parts of acetone, 25 parts of polyvinylpyrrolidone VA-S630 and 20 parts of NAC. The control film-forming lotion lacked the NAC.
(§5) Human nail clippings (n = 2 x 3) were laid on pads soaked in saline, and the two types of film-forming lotion were painted on their dorsal surface twice a day. The weights of the clippings were determined after 3, 4, 5 and 6 days.

[5] = Penetration of eosine in nail clippings after dorsal application of a film-forming lotion (Example 4); format: in vitro ADME, Human; conditions: after 6 days of film-forming lotion treatment, then 24 hours in 1% eosine solution without NAC
Description: as §4, §5
After the above 6 days of treatment, the (2 x 3) clippings were rinsed and placed for 24 hours in a solution of 1% eosine, as described in Example 2 (without NAC), and then further processed for the microscopic estimation of dye penetration as in Example 2. The average penetration of the dye through the NAC-penetrated nails was 48% of the nail thickness, compared to 6% in the controls.

[6] = Effect of NAC-containing lotion on the penetration of 14C oxiconazole in nail discs (Example 6); format: in vitro ADME, human; conditions: 20% w/v NAC lotion with 1% w/v oxiconazole; 48 hours at 30°C
Description: A 20% w/v NAC-containing lotion and a control lotion were prepared as in Example 1.
To both these preparations was added 1% w/v of oxiconazole, containing a known amount (1 µCi per 30 µl) of radioactive ¹⁴C oxiconazole.
(§6) On human nail discs of 6 mm diameter were mounted 1.5 cm pieces of tubing of 4 mm outer and 3 mm inner diameter, in each of which was poured 30 µl of one of the above lotions (n = 2 x 3). The free (ventral) surfaces of the nail discs were kept moist on a pad soaked in saline.
(§7) After 48 hours of incubation at 30°C and the discs were sectioned (50 µm) parallel to their dorsal surface, using a freeze-microtome. Radioactivity was measured in the separate sections, after which the amount of penetrated oxiconazole was calculated.

[7] = Effect of pretreatment with NAC-containing film-forming lotion on the penetration of oxiconazole in nail discs (Example 7); format: in vitro ADME, Human
Description: A 20% w/v NAC-containing film-forming lotion and a control film-forming lotion were prepared as in Example 4.
(§8) Human nail discs of 6 mm diameter, resting with their ventral side on pads soaked with saline, were dorsally painted with these film-forming lotions (n = 2 x 3) twice daily during 5 days. Then the six nail discs were rinsed and mounted on pieces of tubing as in Example 6. Subsequently 20 mg of ¹⁴C oxiconazole was added to 30 ml of Oceral® lotion (i.e. 1% oxiconazole in an alcoholic base). Of this, 30 µl was poured into the tubings on top of the dorsal surfaces of the discs as in Example 6. The free (ventral) surfaces of the nail discs were again kept moist on a pad soaked in saline.
(§9) After 48 hours of incubation at 30°C and 60% relative humidity the discs were sectioned (50 µm) parallel to their dorsal surface, using a freeze-microtome. Radioactivity was measured in the separate sections, after which the amount of penetrated oxiconazole was calculated.

[8] = Effect of pretreatment with cream on the penetration of oxiconazole in nail discs (Example 8); format: in vitro ADME, Human; conditions: pretreatment with cream twice daily during 5 days, then Oceral lotion (1% oxiconazole) 48 hours at 30°C, 60% relative humidity
Description: A NAC-containing cream and a control cream were prepared as in Example 5.
as §8, with “creams” for “film-forming lotions”
as §9

[9] = Comparison of sulfhydryl compounds: weight increase of nail clippings during immersion in a lotion (Example 10); set-up: species or system human; conditions: 0.1 M in lotion of 50% v/v ethanol in distilled water
Description: as §1
The effects of 0.1 M of each of NAC (pH 2.3), 1,4-dithiothreitol (DTT, not claimed, pH 4.5) and ammonium thioglycolate (ATG, not claimed, pH 9.0), in a lotion consisting of 50% v/v ethanol in distilled water were compared, as in Example 1. The immersion period of the human nail clippings in the control and test lotions was 72 hours.

[10] = format: in vitro ADME, human
Description: as §6, §7
To lotions consisting of 50% v/v of ethanol in distilled water were added 0.1 M of NAC (pH 2.3), of 1,4-dithiothreitol (DTT, not claimed, pH 4.5) or of ammonium thioglycolate (ATG, not claimed, pH 9.0), as in Example 10. To all three solutions was also added 1% w/v of oxiconazole, containing a known amount (1 µCi per 30 µl) of radioactive ¹⁴C oxiconazole. These lotions were tested in an experimental set-up as in Examples 6 and 9.

average penetration of the dye, % of the total nail thickness [2]: 27.5%
average penetration of the dye [3]: 19%
average penetration of the dye, % of the nail thickness [5]: 48%
average total uptake of oxiconazole (expressed as a % of the total amount of oxiconazole applied) [6]: 4.94%
average radioactivity in the three pads under the discs ([7]; pretreatment with film-forming lotion 5 days, then 14C oxiconazole in Oceral lotion 48 hours): 7.53%
average total uptake of oxiconazole (expressed as a % of the total amount of oxiconazole applied) ([7]; pretreatment with film-forming lotion twice daily during 5 days, then Oceral lotion (1% oxiconazole) 48 hours at 30°C, 60% relative humidity): 3.25%
average total uptake of oxiconazole (expressed as a % of the total amount of oxiconazole applied) [8]: 4.0%
Average amount of oxiconazole (μg), Total [10]: 15.17 µg
Structure (SMILES): CC(=O)N[C@@H](CS)C(=O)O [NAC, N-acetyl-cysteine]
Average % weight increase during immersion (hours) ([1]; 5 % w/v in lotion, 1 hour): 23%
Average % weight increase during immersion (hours) ([1]; 5 % w/v in lotion, 3 hours): 32%
Average % weight increase during immersion (hours) ([1]; 5 % w/v in lotion, 6 hours): 38%
Average % weight increase during immersion (hours) ([1]; 5 % w/v in lotion, 24 hours): 47%
Average % weight increase during immersion (hours) ([1]; 5 % w/v in lotion, 48 hours): 60%
Average % weight increase during immersion (hours) ([1]; 5 % w/v in lotion, 72 hours): 70%
Average % weight increase during immersion (hours) ([1]; 10 % w/v in lotion, 1 hour): 24%
Average % weight increase during immersion (hours) ([1]; 10 % w/v in lotion, 3 hours): 33%
Average % weight increase during immersion (hours) ([1]; 10 % w/v in lotion, 6 hours): 38%
Average % weight increase during immersion (hours) ([1]; 10 % w/v in lotion, 24 hours): 59%
Average % weight increase during immersion (hours) ([1]; 10 % w/v in lotion, 48 hours): 67%
Average % weight increase during immersion (hours) ([1]; 10 % w/v in lotion, 72 hours): 79%
Average % weight increase during immersion (hours) ([1]; 20 % w/v in lotion, 1 hour): 23%
Average % weight increase during immersion (hours) ([1]; 20 % w/v in lotion, 3 hours): 30%
Average % weight increase during immersion (hours) ([1]; 20 % w/v in lotion, 6 hours): 37%
Average % weight increase during immersion (hours) ([1]; 20 % w/v in lotion, 24 hours): 60%
Average % weight increase during immersion (hours) ([1]; 20 % w/v in lotion, 48 hours): 91%
Average % weight increase during immersion (hours) ([1]; 20 % w/v in lotion, 72 hours): 110%
Average % weight increase during immersion (hours) ([1]; 40 % w/v in lotion, 1 hour): 24%
Average % weight increase during immersion (hours) ([1]; 40 % w/v in lotion, 3 hours): 33%
Average % weight increase during immersion (hours) ([1]; 40 % w/v in lotion, 6 hours): 38%
Average % weight increase during immersion (hours) ([1]; 40 % w/v in lotion, 24 hours): 71%
Average % weight increase during immersion (hours) ([1]; 40 % w/v in lotion, 48 hours): 110%
Average % weight increase during immersion (hours) ([1]; 40 % w/v in lotion, 72 hours): 154%
weight increase of clippings [4]: 34%
Average % weight increase after immersion during 72 hours [9]: 72%

Structure (SMILES): NCCS [Mercaptoethyl-amine, mercaptoethylamine]
Average % weight increase during immersion (hours) ([1]; 20 % w/v in lotion, 1 hour): 10%
Average % weight increase during immersion (hours) ([1]; 20 % w/v in lotion, 3 hours): 16%
Average % weight increase during immersion (hours) ([1]; 20 % w/v in lotion, 6 hours): 21%
Average % weight increase during immersion (hours) ([1]; 20 % w/v in lotion, 24 hours): 38%
Average % weight increase during immersion (hours) ([1]; 20 % w/v in lotion, 48 hours): 55%
Average % weight increase during immersion (hours) ([1]; 20 % w/v in lotion, 72 hours): 64%

Structure (SMILES): N[C@@H](CCC(=O)N[C@@H](CS)C(=O)NCC(=O)O)C(=O)O [Glutathione, glutathione]
Average % weight increase during immersion (hours) ([1]; 10 % w/v in distilled water, 1 hour): 30%
Average % weight increase during immersion (hours) ([1]; 10 % w/v in distilled water, 3 hours): 32%
Average % weight increase during immersion (hours) ([1]; 10 % w/v in distilled water, 6 hours): 33%
Average % weight increase during immersion (hours) ([1]; 10 % w/v in distilled water, 24 hours): 44%
Average % weight increase during immersion (hours) ([1]; 10 % w/v in distilled water, 48 hours): 58%
Average % weight increase during immersion (hours) ([1]; 10 % w/v in distilled water, 72 hours): 61%

Average amount of oxiconazole (μg), Total [10]: 2.34 µg
Structure (SMILES): O=C(O)CS [Ammonium thioglycolate, ammonium thioglycolate]
Average % weight increase after immersion during 72 hours [9]: 52%

Average amount of oxiconazole (μg), Total [10]: 10.02 µg
Structure (SMILES): O[C@H](CS)[C@H](O)CS (relative stereo) [1,4-Dithiothreitol, 1,4-dithiothreitol]
Average % weight increase during immersion (hours) ([1]; 20 % w/v in lotion, 1 hour): 21%
Average % weight increase during immersion (hours) ([1]; 20 % w/v in lotion, 3 hours): 32%
Average % weight increase during immersion (hours) ([1]; 20 % w/v in lotion, 6 hours): 38%
Average % weight increase during immersion (hours) ([1]; 20 % w/v in lotion, 24 hours): 51%
Average % weight increase during immersion (hours) ([1]; 20 % w/v in lotion, 48 hours): 50%
Average % weight increase during immersion (hours) ([1]; 20 % w/v in lotion, 72 hours): 58%
Average % weight increase after immersion during 72 hours [9]: 49%

Structure (SMILES): O=C(O)c1ccccc1O [Salicylic acid]
Average % weight increase during immersion (hours) ([1]; 14 % w/v in lotion (water/methyl ethyl ketone/isopropyl alcohol), 1 hour, ambient temperature): 17%
Average % weight increase during immersion (hours) ([1]; 14 % w/v in lotion, 3 hours): 24%
Average % weight increase during immersion (hours) ([1]; 14 % w/v in lotion, 6 hours): 26%
Average % weight increase during immersion (hours) ([1]; 14 % w/v in lotion, 24 hours): 29%
Average % weight increase during immersion (hours) ([1]; 14 % w/v in lotion, 48 hours): 30%
Average % weight increase during immersion (hours) ([1]; 14 % w/v in lotion, 72 hours): 30%

Structure (SMILES): NC(N)=O [Urea, urea]
Average % weight increase during immersion (hours) ([1]; 50 % w/v in distilled water, 1 hour): 22%
Average % weight increase during immersion (hours) ([1]; 50 % w/v in distilled water, 3 hours): 24%
Average % weight increase during immersion (hours) ([1]; 50 % w/v in distilled water, 6 hours): 32%
Average % weight increase during immersion (hours) ([1]; 50 % w/v in distilled water, 24 hours): 35%
Average % weight increase during immersion (hours) ([1]; 50 % w/v in distilled water, 48 hours): 36%
Average % weight increase during immersion (hours) ([1]; 50 % w/v in distilled water, 72 hours): 37%
